{"source": "paper PMC12441843", "about": "(ACS pharmacology & translational science, 2025)", "key": {"[1]": {"test_system": "senescent lung fibroblasts", "test": "Cleaved caspase-3 (CCasp3) immunocytochemistry in senescent lung fibroblasts", "format": "cell-based, human", "details": "for Senolytic window (EC50pro/EC50sen): ratio of proliferating to senescent fibroblast EC50; for concentration above which senolytic effects were displayed: CCasp3 dose-response"}, "[2]": {"test_system": "proliferating lung fibroblasts", "test": "Cleaved caspase-3 (CCasp3) immunocytochemistry in proliferating lung fibroblasts", "format": "cell-based, human"}, "[3]": {"test": "Plasma stability assay, mouse plasma", "format": "in vitro ADME"}, "[4]": {"test": "Plasma stability assay, human plasma", "format": "in vitro ADME"}, "[5]": {"test": "Mouse liver microsomal stability", "format": "in vitro ADME", "details": "mouse liver microsomes, 1 μM"}, "[6]": {"test": "Plasma levels following oral delivery of F-4N", "format": "in vivo", "details": "both sexes, mouse, 30 mg/kg"}, "[7]": {"test_system": "precision-cut lung slices from bleomycin-injured aged mouse lungs", "test": "Precision-cut lung slices (PCLS) from aged mice +/- bleomycin, qPCR", "details": "72 hours ex vivo; for Col1a1 expression in PCLS: Nintedanib 1.0μM, vs. vehicle"}, "[8]": {"test_system": "bleomycin-induced lung fibrosis in aged mice", "test": "Bleomycin-induced model of lung fibrosis in aged mice", "format": "in vivo, mouse"}, "[9]": {"test_system": "repeated bleomycin-induced lung fibrosis", "test": "Repeated bleomycin-induced model of lung fibrosis", "format": "in vivo, mouse", "details": "10mg/kg daily i.p. for two weeks"}, "[10]": {"test_system": "senescent lung fibroblasts", "test": "Annexin V / Propidium Iodide flow cytometry, senescent fibroblasts", "format": "cell-based, human", "details": "72 hours, F-4N 3.0 μM"}, "[11]": {"test_system": "proliferating lung fibroblasts", "test": "Annexin V / Propidium Iodide flow cytometry, proliferating fibroblasts", "format": "cell-based, human", "details": "72 hours, F-4N 3.0 μM"}, "[12]": {"test_system": "mice with bleomycin induced lung fibrosis", "test": "Oral dose-finding study with F-4N in bleomycin mice (body mass, lung cytokine transcripts)", "format": "in vivo, mouse"}, "[13]": {"test_system": "bleomycin-induced lung fibrosis", "test": "Bleomycin model in young Col1a2-mTmG mice, FACS-sorted fibroblasts and epithelial cells, qPCR", "format": "in vivo, mouse"}, "[14]": {"details": "Homo sapiens, Fibroblast, 72 h, read-out: Senescent fibroblast apoptosis EC50"}, "[15]": {"details": "Homo sapiens, Fibroblast, 72 h, read-out: Proliferating fibroblast apoptosis EC50, cleaved caspase-3 staining, 72 hours, low passage human lung fibroblasts"}, "[16]": {"details": "F-4N 3µM, ABT-263 5.0µM, ABT-199 3µM"}, "[17]": {"details": "10 mg/kg i.p. daily days 14-28, vs. vehicle"}, "[18]": {"details": "read-out: Proliferating fibroblast apoptosis EC50, cleaved caspase-3 staining, 72 hours, low passage human lung fibroblasts"}, "[19]": {"details": "senescent vs. proliferating fibroblasts, 72 hours"}}, "note": "pEC50, pIC50: −log10 of the molar value. “And” between values parts separate entries of the source, which are not always exact repeats. Equal entries are not always repeated. Where two headings read alike, the source gives them in different places.", "data": [{"molecule": "CC1(C)CCC(CN2CCN(c3ccc(C(=O)NS(=O)(=O)c4ccc(NCC5CCOCC5)c([N+](=O)[O-])c4)c(Oc4cnc5[nH]ccc5c4)c3)CC2)=C(c2ccc(Cl)cc2)C1", "note": "[ABT-199, venetoclax, reference compound]", "values": [{"measurement": "pEC50", "setting": "[1]; [14]", "value": 5.49}, {"measurement": "Senolytic window (EC50pro/EC50sen)", "setting": "[1]", "value": 23.9}, {"measurement": "pEC50", "setting": "[2]; [15]", "value": 4.12}]}, {"molecule": "CC1(C)CCC(c2ccc(Cl)cc2)=C(CN2CCN(c3ccc(C(=O)NS(=O)(=O)c4ccc(N[C@H](CCN5CCOCC5)CSc5ccccc5)c(S(=O)(=O)C(F)(F)F)c4)cc3)CC2)C1", "note": "[ABT-263, navitoclax, reference compound]", "values": [{"measurement": "pEC50", "setting": "[1]; [14]", "value": 5.72}, {"measurement": "Senolytic window (EC50pro/EC50sen)", "setting": "[1]", "value": 7.8}, {"measurement": "pEC50", "setting": "[2]; [15]", "value": 4.83}]}, {"molecule": "CN(C)CC[C@H](CSc1ccccc1)Nc1ccc(S(=O)(=O)NC(=O)c2ccc(N3CCN(Cc4ccccc4-c4ccc(Cl)cc4)CC3)cc2)cc1[N+](=O)[O-]", "note": "[ABT-737, reference compound]", "values": [{"measurement": "pEC50", "setting": "[1]; [14]", "value": 6.15}, {"measurement": "pEC50", "setting": "[2]; [15]", "value": 5.01}]}, {"molecule": "O=c1c(O)c(-c2ccc(OCc3ccccn3)cc2)oc2ccccc12", "note": "[Compound F-2N]", "values": [{"measurement": "pEC50", "setting": "[1]; [14]", "value": 4.66}, {"measurement": "Senolytic window (EC50pro/EC50sen)", "setting": "[1]", "value": 1.4}, {"measurement": "pEC50", "setting": "[2]; [15]", "value": 4.53}]}, {"molecule": "O=c1c(O)c(-c2ccc(OCc3cccnc3)cc2)oc2ccccc12", "note": "[Compound F-3N]", "values": [{"measurement": "pEC50", "setting": "[1]; [14]", "value": 4.95}, {"measurement": "Senolytic window (EC50pro/EC50sen)", "setting": "[1]", "value": 1.3}, {"measurement": "pEC50", "setting": "[2]; [15]", "value": 4.83}]}, {"molecule": "O=c1c(O)c(-c2ccc(OCc3ccncc3)cc2)oc2ccccc12", "note": "[Compound F-4N]", "values": [{"measurement": "greater senolytic potency in vitro compared to fisetin or quercetin", "setting": "[1]", "value": "~ 50 X"}, {"measurement": "pEC50", "setting": "[1]; [14]", "value": 6.10}, {"measurement": "pEC50", "setting": "[1]; Homo sapiens, Fibroblast, read-out: EC50 (senolytic potency, CCasp3 assay)", "value": 6.05}, {"measurement": "pIC50", "setting": "[1]; Homo sapiens, Fibroblast, read-out: defined in vitro IC50", "value": 6.05}, {"measurement": "Senolytic window (EC50pro/EC50sen)", "setting": "[1]", "value": 61.1}, {"measurement": "cleaved caspase-3 expression in senescent fibroblasts derived from multiple stimuli", "setting": "[1]; senescence by replication, radiation, etoposide or bleomycin, 72 hours, F-4N 3µM", "value": "induces cleaved caspase-3 expression"}, {"measurement": "senolytic window (selective)", "setting": "[1]; senescent vs. proliferating fibroblasts", "value": 61.1, "unit": "fold"}, {"measurement": "pEC50", "setting": "[2]; [15]", "value": 4.31}, {"measurement": "half-life at 1 μM", "setting": "[3]", "value": "> 120", "unit": "min"}, {"measurement": "half-life at 1 μM", "setting": "[4]", "value": "> 120", "unit": "min"}, {"measurement": "microsomal half-life relative to quercetin", "setting": "[5]", "value": "> 3", "unit": "fold"}, {"measurement": "concentration at 2 h", "setting": "[6]", "value": "561 ng/mL and 1.62 µM"}, {"measurement": "markers indicative of alveolar regeneration in PCLS", "setting": "[7]; [16]", "value": "stimulated expression of markers indicative of alveolar regeneration"}, {"measurement": "senescence associated markers in PCLS", "setting": "[7]; [16]", "value": "supported reductions in senescence associated markers"}, {"measurement": "plasma levels of IL-6", "setting": "[8]; 10 mg/kg i.p. daily days 14-28", "value": "nearly complete normalization"}, {"measurement": "lung collagen content (hydroxyproline)", "setting": "[8]; [17]", "value": "nearly complete resolution of lung collagen content"}, {"measurement": "mouse survival", "setting": "[8]; [17]", "value": "improvement in mouse survival"}, {"measurement": "whole lung expression of ECM and senescence-associated transcripts", "setting": "[8]; [17]", "value": "significantly lower expression"}, {"measurement": "whole lung markers associated with alveolar regeneration and repair", "setting": "[8]; [17]", "value": "significantly elevated"}, {"measurement": "expression of aberrant basaloid/intermediate epithelial markers Snf, Cldn4, Krt19, Mmp7", "setting": "[9]", "value": "repressing expression"}, {"measurement": "expression of mature alveolar epithelial markers Hopx, Ager, Sftpa1, Sftpc", "setting": "[9]", "value": "enhanced expression"}, {"measurement": "body mass, lung architecture, collagen content, whole lung gene expression", "setting": "[9]; vs. vehicle", "value": "features consistent with resolution"}, {"measurement": "apoptosis (Annexin V / Propidium Iodide)", "setting": "[10]", "value": "selective apoptosis in senescent lung fibroblasts"}, {"measurement": "apoptosis (Annexin V / Propidium Iodide)", "setting": "[11]", "value": "without an observable impact"}, {"measurement": "bodyweight", "setting": "[12]; 30mg/kg daily p.o. for one week", "value": "improvement in bodyweight"}, {"measurement": "minimum effective oral dose to impact expression of Infa2, Il6, Ccl19, Cxcl13, Tgfb2, Ltb", "setting": "[12]; daily p.o. 7 days, whole lung qPCR", "value": 30, "unit": "mg/kg"}]}, {"molecule": "CCOc1ccc(-c2oc3ccccc3c(=O)c2O)cc1", "note": "[Compound F-19]", "values": [{"measurement": "more potent than the natural products Q or F", "setting": "[1]", "value": 10, "unit": "fold"}, {"measurement": "ranking in follow-up dose-response of the commercial flavonol library", "setting": "[1]; CCasp3, senescent and proliferating lung fibroblasts", "value": "most potent and selective senolytics"}, {"measurement": "pEC50", "setting": "[1]; [14]", "value": 5.62}, {"measurement": "Senolytic window (EC50pro/EC50sen)", "setting": "[1]", "value": 10.2}, {"measurement": "pEC50", "setting": "[2]; [15]", "value": 4.60}, {"measurement": "pEC50", "setting": "[2]; [18]", "value": 4.61}, {"measurement": "expression of Sftpc and Hopx (mature alveolar epithelium) in PCLS", "setting": "[7]; F-19 10μM", "value": "increased expression"}, {"measurement": "Col1a1 expression in PCLS", "setting": "[7]; F-19 10μM", "value": "reduced expression of Col1a1"}, {"measurement": "expression of senescence-associated markers Cdkn2a, Cdkn1a, Il6 in PCLS", "setting": "[7]; F-19 10μM, vs. vehicle- and nintedanib-treated", "value": "significantly reduced expression"}, {"measurement": "expression of TNF-α in fibroblasts and epithelial cells", "setting": "[13]; 10 mg/kg i.p. daily for 4 days", "value": "did not alter expression"}, {"measurement": "expression of pathological markers of lung fibrosis (ECM genes, senescence-associated soluble factors, aberrant basaloid markers)", "setting": "[13]; 10 mg/kg i.p. daily for 4 days", "value": "normalized expression"}, {"measurement": "expression of Cdkn2a (p16) and Cdkn1a (p21) in fibroblasts and epithelial cells", "setting": "[13]; 10 mg/kg i.p. daily for 4 days from day 10 after bleomycin, vs. vehicle", "value": "significantly reduced expression"}, {"measurement": "expression of alveolar epithelial ATII, ATII/ATI and ATI markers", "setting": "[13]; 10 mg/kg i.p. daily for 4 days, vs. vehicle", "value": "elevated expression"}]}, {"molecule": "O=c1c(O)c(-c2ccc(OCc3ccccc3)cc2)oc2ccccc12", "note": "[Compound F-20]", "values": [{"measurement": "pEC50", "setting": "[1]; [14]", "value": 5.82}, {"measurement": "Senolytic window (EC50pro/EC50sen)", "setting": "[1]", "value": 18.4}, {"measurement": "pEC50", "setting": "[2]; [15]", "value": 4.56}]}, {"molecule": "CCCOc1ccc(-c2oc3ccccc3c(=O)c2O)cc1", "note": "[F-19(Me)]", "values": [{"measurement": "Senolytic window (EC50pro/EC50sen)", "setting": "[1]", "value": 5.7}, {"measurement": "pEC50", "setting": "[1]; read-out: Senescent fibroblast apoptosis EC50, cleaved caspase-3 staining, 72 hours, replicative senescent human lung fibroblasts", "value": 5.47}, {"measurement": "pEC50", "setting": "[2]; [18]", "value": 4.71}]}, {"molecule": "O=c1c(O)c(-c2ccc(O)c(O)c2)oc2cc(O)ccc12", "note": "[fisetin, reference compound]", "values": [{"measurement": "concentration above which senolytic effects were displayed", "setting": "[1]; [19]", "value": "above 30 μM"}]}, {"molecule": "COC(=O)c1ccc2c(c1)NC(=O)/C2=C(\\Nc1ccc(N(C)C(=O)CN2CCN(C)CC2)cc1)c1ccccc1", "note": "[nintedanib, reference compound]", "values": [{"measurement": "Col1a1 expression in PCLS", "setting": "[7]; F-19 10μM", "value": "reduced expression of Col1a1"}]}, {"molecule": "O=c1c(O)c(-c2ccc(O)c(O)c2)oc2cc(O)cc(O)c12", "note": "[quercetin, reference compound]", "values": [{"measurement": "concentration above which senolytic effects were displayed", "setting": "[1]; [19]", "value": "above 30 μM"}, {"measurement": "pEC50", "setting": "[1]; [14]", "value": "< 4.52"}, {"measurement": "half-life at 1 μM", "setting": "[3]", "value": "~30", "unit": "min"}, {"measurement": "half-life at 1 μM", "setting": "[4]", "value": "~30", "unit": "min"}]}]}
